Measurements: ChEMBL document CHEMBL3885861, “Open TG-GATES”

Organism: Rattus norvegicus
Experiment: Open TG-GATES - Regimen: Single
Type: toxicity, organism-based, Sprague-Dawley
Parameters: regimen Single, gender Male, age 6 weeks
Settings: in vivo, po, route gavage; for gamma-GTP / ALP / ALT / AST / BUN / CRE / Ca / Cl / DBIL / GLC / IP / K / LDH / Na / PL / RALB / TBIL / TC / TG / TP: tissue Plasma; for APTT / Bas / Eos / Fbg / Hb / Ht / Lym / MCH / MCHC / Mono / Neu / Plat / RBC / Ret / WBC: tissue Blood; for KIDNEY_L / KIDNEY_R / KIDNEY_TOTAL: tissue Kidney; for LIVER: tissue Liver
[1] = 10 mg/kg, 3 h, dose level Middle
[2] = 10 mg/kg, 6 h, dose level Middle
[3] = 10 mg/kg, 9 h, dose level Middle
[4] = 10 mg/kg, 24 h, dose level Middle

Q: Which gamma-GTP (3 mg/kg, 24 h, dose level Low) does the source give for `O=C(CCCN1CCC(O)(c2ccc(Cl)cc2)CC1)c1ccc(F)cc1` [HALOPERIDOL] here?
A: 1.6 IU/L

Q: What about the TERMINAL_BW [1] of the same molecule?
A: 204.5 g

Q: And the APTT [1]?
A: 17.3 s

Q: And the Bas [1]?
A: 0%

Q: What about the Eos [1] of the same molecule?
A: 0.4%

Q: What about the Fbg [1] of the same molecule?
A: 202.4 mg/dL

Q: What about the Hb [1] of the same molecule?
A: 13.2 g/dL

Q: What about the Ht [1] of the same molecule?
A: 39.7%

Q: And the Lym [1]?
A: 71.2%

Q: What about the MCH [1] of the same molecule?
A: 22 pg

Q: And the MCHC [1]?
A: 33.1%

Q: And the Mono [1]?
A: 12%

Q: And the Neu [1]?
A: 16.4%

Q: And the Plat [1]?
A: 97.9 x10_4/uL

Q: And the RBC [1]?
A: 598.8 x10_4/ul

Q: And the Ret [1]?
A: 8.8%

Q: What about the WBC [1] of the same molecule?
A: 87.7 x10_2/uL

Q: And the KIDNEY_L [1]?
A: 0.9 g

Q: What about the KIDNEY_R [1] of the same molecule?
A: 1 g

Q: What about the KIDNEY_TOTAL [1] of the same molecule?
A: 1.9 g

Q: And the LIVER [1]?
A: 9.9 g

Q: What about the ALP [1] of the same molecule?
A: 802.2 IU/L

Q: What about the ALT [1] of the same molecule?
A: 36 IU/L

Q: What about the AST [1] of the same molecule?
A: 59.8 IU/L

Q: What about the BUN [1] of the same molecule?
A: 11.6 mg/dL

Q: What about the CRE [1] of the same molecule?
A: 0.6 mg/dL

Q: And the Ca [1]?
A: 10.8 mg/dL

Q: What about the Cl [1] of the same molecule?
A: 107 meq/L

Q: And the DBIL [1]?
A: 0.02 mg/dL

Q: What about the GLC [1] of the same molecule?
A: 216.2 mg/dL

Q: And the IP [1]?
A: 10.1 mg/dL

Q: And the K [1]?
A: 4.5 meq/L

Q: And the LDH [1]?
A: 107.4 IU/L

Q: What about the Na [1] of the same molecule?
A: 140 meq/L

Q: And the PL [1]?
A: 141.2 mg/dL

Q: And the RALB [1]?
A: 3.5 g/dL

Q: And the TBIL [1]?
A: 0.3 mg/dL

Q: And the TC [1]?
A: 80.8 mg/dL

Q: What about the TG [1] of the same molecule?
A: 30 mg/dL

Q: And the TP [1]?
A: 5.5 g/dL

Q: What about the gamma-GTP [1] of the same molecule?
A: 1.2 IU/L

Q: And the TERMINAL_BW [2]?
A: 201.2 g

Q: And the APTT [2]?
A: 16.6 s

Q: And the Bas [2]?
A: 0%

Q: What about the Eos [2] of the same molecule?
A: 0.8%

Q: What about the Fbg [2] of the same molecule?
A: 201.2 mg/dL

Q: What about the Hb [2] of the same molecule?
A: 13.8 g/dL

Q: And the Ht [2]?
A: 41.9%

Q: And the Lym [2]?
A: 69.8%

Q: What about the MCH [2] of the same molecule?
A: 21.6 pg

Q: And the MCHC [2]?
A: 32.9%

Q: And the Mono [2]?
A: 5.5%

Q: And the Neu [2]?
A: 24%

Q: What about the Plat [2] of the same molecule?
A: 99.7 x10_4/uL

Q: What about the RBC [2] of the same molecule?
A: 637.2 x10_4/ul

Q: What about the Ret [2] of the same molecule?
A: 8.6%

Q: What about the WBC [2] of the same molecule?
A: 75.3 x10_2/uL

Q: And the KIDNEY_L [2]?
A: 0.9 g

Q: And the KIDNEY_R [2]?
A: 1 g

Q: What about the KIDNEY_TOTAL [2] of the same molecule?
A: 1.9 g

Q: And the LIVER [2]?
A: 8.9 g

Q: What about the ALP [2] of the same molecule?
A: 922.8 IU/L

Q: What about the ALT [2] of the same molecule?
A: 31.8 IU/L

Q: And the AST [2]?
A: 56.5 IU/L

Q: And the BUN [2]?
A: 8.8 mg/dL

Q: What about the CRE [2] of the same molecule?
A: 0.4 mg/dL

Q: What about the Ca [2] of the same molecule?
A: 10.4 mg/dL

Q: What about the Cl [2] of the same molecule?
A: 107.2 meq/L

Q: What about the DBIL [2] of the same molecule?
A: 0.025 mg/dL

Q: What about the GLC [2] of the same molecule?
A: 189.2 mg/dL

Q: What about the IP [2] of the same molecule?
A: 10.2 mg/dL

Q: And the K [2]?
A: 4.7 meq/L

Q: And the LDH [2]?
A: 111 IU/L

Q: And the Na [2]?
A: 139.5 meq/L

Q: What about the PL [2] of the same molecule?
A: 130.5 mg/dL

Q: What about the RALB [2] of the same molecule?
A: 3.5 g/dL

Q: What about the TBIL [2] of the same molecule?
A: 0.4 mg/dL

Q: What about the TC [2] of the same molecule?
A: 75.2 mg/dL

Q: And the TG [2]?
A: 29.5 mg/dL

Q: What about the TP [2] of the same molecule?
A: 5.5 g/dL

Q: What about the gamma-GTP [2] of the same molecule?
A: 1.2 IU/L

Q: What about the TERMINAL_BW [3] of the same molecule?
A: 195.8 g

Q: And the APTT [3]?
A: 17 s

Q: And the Bas [3]?
A: 0%

Q: What about the Eos [3] of the same molecule?
A: 0.4%

Q: And the Fbg [3]?
A: 210 mg/dL

Q: What about the Hb [3] of the same molecule?
A: 13.9 g/dL

Q: What about the Ht [3] of the same molecule?
A: 41.8%

Q: What about the Lym [3] of the same molecule?
A: 75.8%

Q: What about the MCH [3] of the same molecule?
A: 21.8 pg

Q: What about the MCHC [3] of the same molecule?
A: 33.4%

Q: What about the Mono [3] of the same molecule?
A: 7.8%

Q: What about the Neu [3] of the same molecule?
A: 16%

Q: What about the Plat [3] of the same molecule?
A: 101.8 x10_4/uL

Q: What about the RBC [3] of the same molecule?
A: 641.2 x10_4/ul

Q: And the Ret [3]?
A: 8.6%

Q: What about the WBC [3] of the same molecule?
A: 63.2 x10_2/uL

Q: And the KIDNEY_L [3]?
A: 0.9 g

Q: What about the KIDNEY_R [3] of the same molecule?
A: 0.9 g

Q: And the KIDNEY_TOTAL [3]?
A: 1.7 g

Q: And the LIVER [3]?
A: 8.4 g

Q: And the ALP [3]?
A: 812.8 IU/L

Q: What about the ALT [3] of the same molecule?
A: 27.8 IU/L

Q: And the AST [3]?
A: 53.8 IU/L

Q: What about the BUN [3] of the same molecule?
A: 9.2 mg/dL

Q: And the CRE [3]?
A: 0.6 mg/dL

Q: And the Ca [3]?
A: 10.1 mg/dL

Q: And the Cl [3]?
A: 107 meq/L

Q: What about the DBIL [3] of the same molecule?
A: 0.024 mg/dL

Q: And the GLC [3]?
A: 200.2 mg/dL

Q: What about the IP [3] of the same molecule?
A: 11.1 mg/dL

Q: What about the K [3] of the same molecule?
A: 4.6 meq/L

Q: And the LDH [3]?
A: 100 IU/L

Q: And the Na [3]?
A: 139.6 meq/L

Q: What about the PL [3] of the same molecule?
A: 134.2 mg/dL

Q: What about the RALB [3] of the same molecule?
A: 3.7 g/dL

Q: What about the TBIL [3] of the same molecule?
A: 0.4 mg/dL

Q: And the TC [3]?
A: 76.4 mg/dL

Q: What about the TG [3] of the same molecule?
A: 25.8 mg/dL

Q: What about the TP [3] of the same molecule?
A: 5.5 g/dL

Q: And the gamma-GTP [3]?
A: 2.6 IU/L

Q: What about the TERMINAL_BW [4] of the same molecule?
A: 213.1 g

Q: And the APTT [4]?
A: 16.2 s

Q: What about the Bas [4] of the same molecule?
A: 0%

Q: And the Eos [4]?
A: 1.2%

Q: What about the Fbg [4] of the same molecule?
A: 193.4 mg/dL

Q: What about the Hb [4] of the same molecule?
A: 14.2 g/dL

Q: And the Ht [4]?
A: 42.4%

Q: And the Lym [4]?
A: 82%

Q: What about the MCH [4] of the same molecule?
A: 21.9 pg

Q: What about the MCHC [4] of the same molecule?
A: 33.5%

Q: And the Mono [4]?
A: 6.8%

Q: What about the Neu [4] of the same molecule?
A: 10%

Q: What about the Plat [4] of the same molecule?
A: 114.7 x10_4/uL

Q: And the RBC [4]?
A: 648 x10_4/ul

Q: And the Ret [4]?
A: 8.2%

Q: What about the WBC [4] of the same molecule?
A: 76.5 x10_2/uL

Q: And the KIDNEY_L [4]?
A: 1 g

Q: And the KIDNEY_R [4]?
A: 0.9 g

Q: And the KIDNEY_TOTAL [4]?
A: 1.9 g

Q: What about the LIVER [4] of the same molecule?
A: 10.5 g

Q: What about the ALP [4] of the same molecule?
A: 1019.6 IU/L

Q: And the ALT [4]?
A: 32.6 IU/L

Q: And the AST [4]?
A: 62.2 IU/L

Q: And the BUN [4]?
A: 23.8 mg/dL

Q: What about the CRE [4] of the same molecule?
A: 0.5 mg/dL

Q: And the Ca [4]?
A: 11.2 mg/dL

Q: What about the Cl [4] of the same molecule?
A: 104.6 meq/L

Q: What about the DBIL [4] of the same molecule?
A: 0.034 mg/dL

Q: And the GLC [4]?
A: 182.4 mg/dL

Q: What about the IP [4] of the same molecule?
A: 8.2 mg/dL

Q: And the K [4]?
A: 5 meq/L

Q: And the LDH [4]?
A: 102.4 IU/L

Q: And the Na [4]?
A: 140 meq/L

Q: What about the PL [4] of the same molecule?
A: 160.2 mg/dL

Q: What about the RALB [4] of the same molecule?
A: 3.9 g/dL

Q: What about the TBIL [4] of the same molecule?
A: 0.3 mg/dL

Q: And the TC [4]?
A: 79.8 mg/dL

Q: And the TP [4]?
A: 6 g/dL

Q: What about the gamma-GTP [4] of the same molecule?
A: 1 IU/L
